Assay results: patent US8673870B2 (priority 2002, dated 2014)
Several values for one entry are separate records, joined by “and”; a condition that tells them apart may be missing. Identical values can stand only once.

What was measured:
[1] = tested on: APL cells; design: species or system mice; conditions: mouse, in vivo
[2] = tested on: Recombinant human RARα protein (rhRARα); design: species or system mice; conditions: in vivo
[3] = tested on: fragment C; conditions: in vivo
[4] = tested on: spleen cells stimulated with irradiated APL cells; assay: Cytokine release assay (Th1/Th2 cytometric bead array); type: cell-based, mice
Method: Long term survivors (post day 300 illustrated in FIG. 2B) were sacrificed and tested for proliferation and cytokine release. Briefly, 5×10^5 responders (spleen cells from FVB/N injected with APL cells and treated with ATRA+PML-RARα-FrC or ScFvBCL1-FrC) were plated in each well with 200 μl of media consisting of RPMI 1640, 10% FCS and 0.5% […]. Spleen cells from healthy mice treated with ATRA. Stimulators (spleen cells from FVB/N, APL or BALB/c) were irradiated with 25 Gy and 1×10^6 cells were added to each well. After 24, 48 and 72 hours of incubation cells were assayed for ^3H-thymidine incorporation and supernatants were harvested for cytokine release assays. Cultures were set up in duplicate.
Cytokine release was measured using a mouse Th1/Th2 cytokine cytometric bead array kit according to the manufacturer's protocols (Becton, Dickinson, Pharmingen, San Jose, Calif.). This kit measures cytokines IL-2, IL-4, IL-5, IFN-γ and TNF-α. Long-term survivors of the mice from the protocol illustrated in FIG. 8, were sacrificed and spleen cells were cultured as described above. Briefly, 50 μl of supernatant was incubated with 50 μl of the mixed capture beads and 50 μl of the mouse Th1/Th2 PE detection reagent for 2 hours and analyzed on a FACSCalibur cytometer. Analysis was undertaken using the BD CBA (Becton Dickinson, Pharmingen) and Cell Quest software.

| Compound | Survival versus comparison arms (Kaplan Meier), in words [1] | Survival: No. mice/total [1] | Time to relapse and death post transplant ([1]; sc) | Antibodies against RARα detected by ELISA, in words [2] | RARα Ab positive (%) [2] | RARα Ab positive: mice with detectable antibodies/mice alive [2] | Antibody response to fragment C (mice responding/mice tested) [3] | IFN-γ release ([4]; 48 hours of culture, irradiated APL cells as stimulators, ATRA alone = spleen cells from healthy mice) [pg/mL] | Lifespan, in words [1] | TNFα ([4]; with ATRA, approximately one year from injection of APL cells) |
| --- | --- | --- | --- | --- | --- | --- | --- | --- | --- | --- |
| CC1=C(/C=C/C(C)=C/C=C/C(C)=C/C(=O)O)C(C)(C)CCC1 [ATRA, all-trans retinoic acid] | all of the mice relapse and die | 24/24 (100%) and 5/24 (21%) and 0/24 (0%) | 6-12 weeks | Significant levels of antibodies against RARα were detected | 7/12 (58%) and 4/5 (80%) | 0/12 and 7/12 (58%) and 4/5 (80%) | no antibodies to fragment C was detected | 52 |  |  |
| ScFvBCL1-FrC: ScFv construct of King et al 1998 from a lymphoma patient fused in frame to BCL1 leader and fragment C (SEQ ID NO:11) |  |  |  |  |  |  |  |  | extended lifespan | increases in TNFα |
